Several values for one entry are separate records, joined by “and”; a condition that tells them apart may be missing. Equal values may be shown once.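 1) Cells in 96-well plates. 2) Compound, 48 h, 5 concentrations. 3) Linear interpolation between surrounding doses. 4) Unreached endpoint = highest concentration. GI50 = concentration required for 50% inhibition of growth. TGI marks complete inhibition of growth.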
Test system: MDA-MB-468 breast
Assay: DTP human tumour cell line panel, 48 h

Row | Compound | GI50 | TGI
1 | CCCCCCN1C(=O)/C(=c2\sc3n(c2=O)C2C(NN=3)N(CC)C(=O)N2CC)c2ccccc21 (stereo unspecified) | 1410 nM | > 50 µM
2 | Cc1cccc2c3c(sc12)C(c1ccc(Cl)cc1)C(C#N)=C(/N=C/c1ccc(Cl)cc1)O3 (stereo unspecified) | 257 nM | 2 µM
3 | O=C(Nc1ccccc1Cl)c1cnc2ccc(C3CCNCC3)cn12 | 2130 nM | 9.54 µM
4 | CCCCCCCCCCCCCCCCCCOc1ccccc1CC(=O)OCC[N+](C)(C)C | 1370 nM | 3.05 µM
5 | COc1ccc2c(c1)[nH]c(=O)c1c3cccnc3cn21 | 133 nM | 2.33 µM
6 | COc1cc2c3c(n(CCCNC4CCCC4)c(=O)c2cc1OC)-c1cc2c(cc1C3=O)OCO2 | 5600 nM | 19.6 µM
7 | S=C(Nc1ccccc1)c1ccccn1 | 45300 nM | > 100 µM
8 | CCN(CC)CCC(=O)Nc1cccc2c1C(=O)c1c(c(O)c3ccccc3c1O)C2=O | > 100000 nM | > 100 µM
9 | CC(=O)OCC(=O)[C@@]1(O)[C@H](C)C[C@H]2[C@@H]3C=C(C)C4=Cc5c(cnn5-c5ccc(F)cc5)C[C@]4(C)[C@H]3[C@@H](O)C[C@@]21C | 2010 nM | 3.92 µM
10 | O=C(O)C(/C=C/c1ccco1)=N\Nc1nc(-c2ccc(Cl)cc2)cs1 | 10600 nM | > 50 µM
11 | CN(C)c1cccc2[nH]c(-c3[nH]ncc3Nc3ccnc(N)n3)nc12 | 14.5 nM | 0.0422 µM
12 | O=C(Oc1ccccc1)c1cc(O)c(O)c(O)c1 | 12600 nM | 67.5 µM
13 | [N-]=[N+]=Nc1ncc(-c2ccc(C(F)(F)F)cc2)c(NC2CCCCCC2)n1 | > 10000 nM | > 10 µM
14 | Cn1cc(-c2cc3ncnc(Nc4ccc(NC(=O)Nc5cc(C(C)(C)C)on5)cc4)c3s2)cn1 | 920 nM | 4.75 µM
15 | Cc1ccc(NC(=O)c2ccnc(C(F)(F)F)c2)cc1-c1cc(OCCO)nc(N2CCOCC2)c1 | 1820 nM | 7.09 µM
16 | CC(C)(C)Cn1c(N)nc2ccc(-c3[nH]c(C(C)(C)C)nc3-c3ccc(F)cc3)nc21 | 3100 nM | 16.8 µM
17 | OCCNc1nc(NCCO)nc(Nc2ccc(C3=NN(c4cc(Cl)cc(Cl)c4)C(c4ccc(Cl)cc4)C3)cc2)n1 (stereo unspecified) | 1920 nM | 3.77 µM
18 | COC(=O)c1c2c(c(C)[n+]([O-])c1C)C(=O)C=C(NCc1ccc(Cl)cc1)C2=O | 223 nM | 0.76 µM
19 | COc1ccc(C2CC(=O)Nc3c2c(C)nn3-c2nc3ccccc3[nH]2)cc1 (stereo unspecified) | 2860 nM | 12.6 µM
20 | O=c1cc/c(=N\Nc2ccccc2)c(=O)/c1=N/Nc1ccccc1 | > 50000 nM | > 50 µM
21 | O=C(CNC(=O)c1cccc2ccccc12)Nc1ccccc1Oc1cccc(O)c1 | 3550 nM | 19.4 µM
22 | Cc1sc2ncnc(Sc3nc4ccccc4[nH]3)c2c1C | 17700 nM | 60.5 µM

Row | Compound | GI50 | TGI
23 | COc1cc(N2CCC(N(C)C)CC2)ccc1Nc1ncc(Cl)c(Nc2ccccc2P(C)(C)=O)n1 | 1220 nM and 897 nM | 3.71 µM and 4.49 µM
24 | Cc1cn(-c2cc(NC(=O)c3cncc(C#Cc4cnc5ccc(OCCCS(C)(=O)=O)nn45)c3)cc(C(F)(F)F)c2)cn1 | 2200 nM | 7.33 µM
25 | CCCCCC(=O)N1c2ccccc2NC2=C(C(=O)CC(c3ccc(OC)c(OC)c3)C2)C1c1ccc(C(F)(F)F)cc1 (stereo unspecified) | > 100000 nM | > 100 µM
26 | N#Cc1nc(-c2cccc(Br)c2)cc(-c2ccc(Nc3nc(N4CCCCC4)nc(N4CCCCC4)n3)cc2)c1N | 2160 nM | 5.64 µM
27 | CCCCCCn1c(-c2ccc(C(=O)O/N=C(\N)c3ccc(OC)cc3)cc2)nc(-c2ccccc2)c1-c1ccccc1 | 1750 nM | 3.51 µM
28 | COC(=O)Nc1ccc2ccc3c(NC(=O)OC)ccc4ccc1c2c43 (tested in a mixture with another compound) | 3800 nM | 19.2 µM
29 | Cn1cnc2c(F)c(Nc3ccc(Br)cc3Cl)c(C(=O)NOCCO)cc21 | > 10000 nM and 11900 nM | > 10 µM and 71.1 µM
30 | Clc1cc(Cl)cc(N2N=C(c3cccc(Nc4ccncc4)c3)CC2c2ccccc2)c1 (stereo unspecified) | 1520 nM | 3.01 µM
31 | COc1nccc(-c2c(-c3ccc(F)cc3)ncn2C2CCC(O)CC2)n1 (stereo unspecified) | 21600 nM | > 89.4 µM
32 | C=C1C(=O)O[C@H]2[C@H]1CC/C(COC(=O)NCCc1ccc(OC)cc1)=C\CC[C@@]1(C)O[C@@H]21 | 1550 nM | 3.85 µM
33 | N#C/C(=C\c1cn(-c2ccccc2)c2ccccc12)C(=O)O | 50700 nM | > 100 µM
34 | CNC(=O)c1cc(Oc2ccc3nc(NC(=O)Nc4ccc(Cl)c(Cl)c4)sc3c2)ccn1 | 1970 nM | 5.09 µM
35 | C#Cc1cccc(NC(=O)Nc2ccc(NC(=O)CCl)cc2)c1 | 13300 nM | 32.1 µM
36 | c1ccc(-c2nc(Nc3ccc(-c4nc5ccccc5[nH]4)cc3)nc(N3CCOCC3)n2)cc1 | 2130 nM | 4.39 µM
37 | FC(F)(F)c1ccc2c(c1)N(CCCN1CCN(C3CC3)CC1)c1ccccc1S2 | 3840 nM | 15.1 µM
38 | CCN(CC)c1ccc(/C=N/NC(=O)c2ccc(Nc3ccnc(C(F)(F)F)c3)cc2)c(O)c1 | 227 nM | 0.956 µM
39 | Nc1nc(-n2cccn2)nc(-n2cccn2)c1Br | > 100000 nM | > 100 µM
40 | COc1ccc(/C=C/C(=O)c2ccc(Nc3ncnc4ccccc34)cc2)cc1OC | 2170 nM | 7.29 µM
41 | O=[N+]([O-])c1cccc(-c2nc3sccn3c2-c2ccnc(NCCCNS(=O)(=O)c3ccc(F)cc3)n2)c1 | 1500 nM | 7.11 µM
42 | COc1cc(C)cc2c1OC(c1ccccc1)CC2=O (stereo unspecified) | > 100000 nM | > 100 µM
43 | CC1OC(O[C@@H]2C(O)C(CO)OC(O[C@H]3COC(O[C@H]4CC[C@]5(C)[C@H]6CC[C@]78OC[C@@]9(CC[C@](C)(C=O)C[C@H]97)[C@H](O)C[C@@]8(C)[C@]6(C)CC[C@H]5C4(C)C)[C@@H](OC4OC(CO)[C@@H](O)[C@@H](O)[C@@H]4O)[C@@H]3O)[C@H]2OC2OC[C@@H](O)[C@@H](O)[C@@H]2O)[C@@H](O)[C@@H](O)[C@H]1O (stereo partly specified) | 1590 nM | 3.28 µM
